From ChEMBL document CHEMBL5120812, “Cytotoxic Nitrobenzoyl Sesquiterpenoids from an Antarctica Sponge-Derived Aspergillus insulicola” (J Nat Prod, 2022)

Assays:
Assay type in all cases: functional, cell-based
PANC-1 = test: Cytotoxicity against human PANC-1 cells assessed as inhibition of cell growth incubated for 72 hrs by SRB assay; settings: PANC-1, 72 h
ASPC1 = test: Cytotoxicity against human ASPC1 cells assessed as inhibition of cell growth incubated for 72 hrs by SRB assay; settings: ASPC1, 72 h
BXPC-3 = test: Cytotoxicity against human BXPC-3 cells assessed as inhibition of cell growth incubated for 72 hrs by SRB assay; settings: BXPC-3, 72 h
MDA-MB-231 = test: Cytotoxicity against human MDA-MB-231 cells assessed as inhibition of cell growth incubated for 72 hrs by SRB assay; settings: MDA-MB-231, 72 h

## Nc1ccn([C@@H]2O[C@H](CO)[C@@H](O)C2(F)F)c(=O)n1 [GEMCITABINE]
PANC-1
  IC50: 8.3 µM
ASPC1
  IC50: 7.5 µM
BXPC-3
  IC50: 0.04 µM

## C=C(CCCCCCCC(=O)OC[C@@]1(C)CCC[C@]2(C)[C@H]3COC(=O)C3=C[C@@H](OC(=O)c3ccc([N+](=O)[O-])cc3)[C@@H]12)C(=O)O
PANC-1
  IC50: > 30 µM
ASPC1
  IC50: > 30 µM
MDA-MB-231
  IC50: > 30 µM

## C[C@]1(COC(=O)CCCCCCC/C=C/C(=O)O)CCC[C@]2(C)[C@H]3COC(=O)C3=C[C@@H](OC(=O)c3ccc([N+](=O)[O-])cc3)[C@@H]12
PANC-1
  IC50: > 30 µM
ASPC1
  IC50: > 30 µM
MDA-MB-231
  IC50: > 30 µM
